Where a SMILES comes first, the peptide text is derived from it. Where no end group is shown, it is not given here. [ ]: non-standard residue; d: D form. ξ: configuration not given here. ξαMeGly(pent-4-enyl) = C=CCCCC(C)(N)C(=O)O
What was measured:
[1] = tested on: MDR A. baumannii; conditions: 2 h, 1.4 μM
[2] = tested on: MDR S. flexneri
[3] = tested on: MDR S. Typhi; conditions: 2 h, 2.8 μM
[4] = tested on: CRE K. pneumoniae
[5] = tested on: MDR P. aeruginosa; conditions: 2 h, 5.6 μM
[6] = tested on: MRSA; conditions: 2 h, 11.2 μM
[7] = tested on: VRE; conditions: 2 h, 11.2 μM
[8] = tested on: MDR Enterobacter cloacae; conditions: 2 h, 16.8 μM
[9] = tested on: N. gonorrhoeae; conditions: 2 h, 22.4 μM
[10] = tested on: B. anthracis; conditions: 2 h, 22.4 μM
[11] = assay media, higher concentrations
[12] = tested on: CRE K. pneumoniae; format: cell-based, Klebsiella pneumoniae; conditions: for function of alanine scan variants: 2 hours (FIGS. 21, 22); for bactericidal activity versus negative control Peptide P5: 2.5×10^5 cfu/ml
[13] = Truncation of Peptide P9, retention of activity; conditions: first 6 amino acids removed
Source text: In some embodiments, alanine scans are available for […] (SEQ ID NO: 11). The alanine scan was used to modify the malleable position 8 and to make a conservative substitution at alanine residue 12 with an alkenyl derivative of alanine, namely, 2-(4-pentenyl)alanine, and then the alkene groups at positions 8 and 12 were coupled/stapled. Thus, a modified peptide in accordance with the presently disclosed subject matter includes a coupled peptide or a stapled peptide. […] Further, the first 6 amino acids present in […] (SEQ ID NO: 11) can be removed one by one while still retaining activity; removing all 6 gives KNLLKAVSKERSKRSP (SEQ ID NO: 12). Further truncations are also provided, including from the other end (such as the two end residues based on the alanine scan).

[14] = tested on: MDR S. Typhi; format: cell-based, Salmonella enterica serovar Typhi; conditions: 50 μM, RPMI/HEPES, 2.5×10^5 cfu/ml
[15] = tested on: CD45+/CD3+ T lymphocytes; assay: Host-targeted bioregulatory effects: in vivo recruitment/infiltration of T lymphocytes; set-up: species or system C57BL/6 mice; conditions: as stated in the sequence description; FIG. 12
[16] = tested on: B. anthracis Sterne strain 7702 spores; format: cell-based, Bacillus anthracis; conditions: 50 μM, RPMI/HEPES+2% FBS, 3 hours post-treatment, 1.0×10^7 cfu/ml spores
[17] = tested on: K. pneumoniae ATCC 43816; assay: Full-thickness wound infection model; format: in vivo, C57BL/6 mice
[18] = tested on: trypsin protease; assay: Resistance to proteolytic degradation (trypsin pretreatment, read out by killing of CRE K. pneumoniae); conditions: trypsin 200:1 molar ratio, 2 hours, 50 mM Tris-HCl + 20 mM CaCl2

CC[C@H](C)[C@H](NC(=O)[C@H](CO)NC(=O)[C@@H](NC(=O)[C@H](CS)NC(=O)[C@@H](NC(=O)[C@H](CS)NC(=O)[C@H](CCCNC(=N)N)NC(=O)[C@@H](NC(=O)[C@@H](NC(=O)[C@H](CCCNC(=N)N)NC(=O)[C@H](CO)NC(=O)[C@H](CC(C)C)NC(=O)[C@@H]1CCCN1C(=O)[C@@H](N)C(C)C)[C@@H](C)O)C(C)C)[C@@H](C)O)[C@@H](C)CC)C(=O)O [Peptide P1, VPLSRTVRCTCISI] (H-VPLSRTVRCTCISI-OH; N-terminus and C-terminus assumed)
killing of bacteria [1]: 99.0-99.9%
killing of bacteria ([2]; MDR, 2 h, 2.8 μM): 99.0-99.9%
killing of bacteria [3]: 99.0-99.9%
killing of bacteria ([4]; CRE, 2 h, 5.6 μM): 99.0-99.9%
killing of bacteria [5]: 99.0-99.9%
killing of bacteria [6]: 99.0-99.9%
killing of bacteria [7]: 99.0-99.9%
killing of bacteria [8]: 99.0-99.9%
killing of bacteria [9]: 99.0-99.9%
killing of bacteria [10]: 99.0-99.9%
solubility [11]: experienced solubility issues at higher concentrations

ATVRCTCI (Artificially synthesized antibacterial peptide or conjugate) [SEQ ID NO: 25, alanine scan variant of Peptide L8, position 1]
function of alanine scan variants ([12]; 50 μM, RPMI/HEPES): still functional

CSVPTITCRVRLIS (Artificially synthesized antibacterial peptide or conjugate) [Peptide P1scram]
survival of bacteria following exposure (killing) ([2]; 2.8 μM peptide, FIG. 6): did not kill bacteria
survival of bacteria following exposure (killing) ([4]; 2.8 μM peptide, FIG. 6): did not kill bacteria

KNLLKAVSKERSKRSP (Artificially synthesized antibacterial peptide or conjugate) [SEQ ID NO: 12, 16 amino acid core, truncated version of Peptide P9]
retention of the activities of Peptide P9 after truncation [13]: retains the activities of Peptide P9

L8-L8-L8: three copies of Peptide L8 concatemerized in head-to-tail configuration (RTVRCTCIRTVRCTCIRTVRCTCI; Artificially synthesized antibacterial peptide or conjugate) [Peptide L8-L8-L8]
bactericidal activity versus negative control Peptide P5 ([12]; 50 μM, RPMI/HEPES): killed CRE K. pneumoniae statistically significantly more effectively than Peptide P5

LSRTVRCTCISI (Artificially synthesized antibacterial peptide or conjugate) [Peptide ΔVP, truncated Peptide P1 variant lacking the first two amino acids]
bactericidal activity versus negative control Peptide P5 ([12]; 50 μM, RPMI/HEPES): statistically significant differences
bactericidal activity versus negative control Peptide P5 [14]: statistically significant differences
immunomodulatory activity [15]: reduced or absent immunomodulatory activity

PESKAIK(pA)LLK(pA)VSKERSKRSP (PESKAIK[ξαMeGly(pent-4-enyl)]LLK[ξαMeGly(pent-4-enyl)]VSKERSKRSP) [alkene-modified peptide, Peptide P9 variant with 2-(4-pentenyl)alanine at amino acids 8 and 12]
activity of modified Peptide P9 variants relative to Peptide P9 ([12]; 50 μM, RPMI/HEPES, 2 hours (FIG. 20)): increased activity

PESKAIKNLLKAVSKERSKRSP [Peptide P9]
activity in hypotonic buffer ([12]; 10 mM KPB/1% TSB, 2 hours at 37° C., FIG. 10): had activity
activity in RPMI (normosaline) ([12]; RPMI/HEPES, 2 hours at 37° C., FIG. 10): lost activity
killing of bacteria [9]: 99.0-99.9%

PESKAIKNLLKAVSKERSKRSPGGGVPLSRTVRCTCISI (Artificially synthesized antibacterial peptide or conjugate) [Peptide P59, Peptide P9 conjugated to Peptide P1 via a tri-glycine linker]
spore germination (numbers of bacilli) [16]: reduced spore germination

RAVRCTCI (Artificially synthesized antibacterial peptide or conjugate) [SEQ ID NO: 26, alanine scan variant of Peptide L8, position 2]
function of alanine scan variants ([12]; 50 μM, RPMI/HEPES): still functional

RTVRCTCI [Peptide D8]
antimicrobial activity after incubation with trypsin ([12]; 50 μM peptide pretreated with trypsin (200:1 molar ratio) for 2 hours): retaining antimicrobial activity
bactericidal activity versus negative control Peptide P5 ([12]; 50 μM, RPMI/HEPES): statistically significant differences
bactericidal activity versus negative control Peptide P5 [14]: statistically significant differences
spore germination (numbers of bacilli) [16]: reduced spore germination
survival (Kaplan-Meier) of infected mice ([17]; 10 μl of 1.2% peptide in saline topically, 4 hours post-infection then twice per day for 4 days, versus saline): statistically significant increase in survival
bacterial burden of wound swabs on LB agar ([17]; same treatment, day 14 post-infection): No bacterial growth was observed
wound status over the course of infection ([17]; same treatment, through day 21): bacterial infection was resolved and healing occurred
resistance to proteolytic degradation [18]: resistant to proteolytic degradation

RTVRCTCI [Peptide L8]
bactericidal activity versus negative control Peptide P5 ([12]; 50 μM, RPMI/HEPES): killed CRE K. pneumoniae statistically significantly more effectively than Peptide P5

VPLSRTVRTVRCTCISIGGGPESKAIKNLLKAVSKERSKRSP [Peptide P55]
bactericidal activity versus negative control Peptide P5 ([12]; 50 μM, RPMI/HEPES): statistically significant differences
bactericidal activity versus negative control Peptide P5 [14]: statistically significant differences

Source: patent publication US20210300981A1, “COMPOSITIONS AND METHODS FOR COMBATING MULTIDRUG-RESISTANT BACTERIA” (University of Virginia Patent Foundation, priority 2018, published 2021)
